US8063012B2, “Neuroprotective peptide inhibitors of AP-1 signaling and uses therefor” (Phylogica Limited, priority 2006, dated 2011)
Non-standard residues stand in square brackets, D forms with d. Residues, ends and D or L forms follow the SMILES beside them.

Experiments:
[1] = system: primary cortical neuronal cultures; test: Light microscopy assessment of neuronal damage after glutamate exposure; type: cell-based, rat; details: for neurons that appeared intact and viable: Sprague-Dawley, rat, 18 hours; for neuronal morphology (cellular rounding, survival) after glutamate exposure: light microscopy, one hour to 18 hours post glutamate exposure
Experimental: Cortical neuronal cultures were established as described by Meloni et al., Neuroscience 108, 17-26, 2001. Briefly, cortical tissue from E18-E19 Sprague-Dawley rats was dissociated in Dulbelcco's Modified Eagle Medium (DMEM; Invitrogen, Australia) supplemented with 1.3 mM L-cysteine, 0.9 mM NaHCO3, 10 units/ml papain (Sigma, USA) and 50 units/ml DNase (Sigma) and washed in cold DMEM/10% (v/v) horse serum. Neurons were resuspended in Neurobasal (NB; Invitrogen) containing 2% B27 supplement (B27; Invitrogen). Before seeding, culture vessels comprising either a 96-well plastic plate or 24-well plastic plate with 13 mm glass coverslips (ProSciTech, Australia), were coated with poly-D-lysine (50 μg/mL; 70-150K; Sigma) and incubated overnight at room temperature. The poly-D-lysine was removed and replaced with NB (containing 2% B27; 4% fetal bovine serum; 1% horse serum; 62.5 μM glutamate; 25 μM 2-mercaptoethanol; and 30 μg/mL streptomycin and 30 μg/mL penicillin). Neurons were plated to obtain approximately 10,000 viable neurons for each well of a 96-well plate, or 200,000 viable neurons per well of a 24-well plate, on day in vitro (DIV) […]. Neuronal cultures were maintained in a CO2 incubator (5% CO2, 95% air balance, 98% humidity) at 37° C. On DIV 4, one third of the culture medium was removed and replaced with fresh NB/2% B27 containing the mitotic inhibitor, cytosine arabinofuranoside (Sigma) at 1 μM concentration. On DIV 8, one half of the culture medium was replaced with NB/2% B27. Cultures were used on DIV 11 or 12, and consisted of >95% neurons.
(§1) To induce glutamate excitotoxicity in the cortical neuronal cultures (96-well plate format), 50 μl of conditioned media containing 200 μM glutamate was added to culture wells containing 50 μl conditioned media (100 μM final glutamate concentration). Cultures were incubated at 37° C. in a CO2 incubator for 5 minutes, after which time the media was replaced with 100 μl of 50% NB/2% N2 and 50% balance salt solution (NB/N2:BSS).
(§2) Eighteen hours after glutamate exposure, neuronal cultures were examined by light microscopy for qualitative assessment of neuronal damage. Neuronal viability was quantitatively measured by 3-(4,5,dimethyliazol-2-yl)-5-(3-carboxymethoxy-phenyl)-2-(4-sulfophenyl)-2H-tetrazolium salt (MTS) assay (Promega, Australia). The MTS assay measures the mitochondrial conversion of the tetrazolium salt to a water-soluble brown formazan salt, which is detected spectrophotometrically at 495 nm. MTS absorbance data was converted to reflect proportional cell viability relative to both the untreated and glutamate treated controls. […] All assays were performed with quadruplicate sister neuronal cultures repeated a minimum of four times independently.

[2] = system: primary cortical neuronal cultures; test: Glutamate excitotoxicity in primary cortical neuronal cultures, neuronal viability by MTS assay; type: cell-based, rat; details: for neuroprotection compared with JNKI-1D-TAT: 1 μM concentration; for neuronal viability following glutamate excitotoxicity: Sprague-Dawley, rat, 18 h, 5 μM; for neuroprotection in the glutamate model: 5 μM extracellular peptide
Experimental: Neurons were resuspended in Neurobasal (NB; Invitrogen) containing 2% B27 supplement (B27; Invitrogen). Before seeding, culture vessels comprising either a 96-well plastic plate or 24-well plastic plate with 13 mm glass coverslips (ProSciTech, Australia), were coated with poly-D-lysine (50 μg/mL; 70-150K; Sigma) and incubated overnight at room temperature. […] Neurons were plated to obtain approximately 10,000 viable neurons for each well of a 96-well plate, or 200,000 viable neurons per well of a 24-well plate, on day in vitro (DIV) […]. […] On DIV 4, one third of the culture medium was removed and replaced with fresh NB/2% B27 containing the mitotic inhibitor, cytosine arabinofuranoside (Sigma) at 1 μM concentration. On DIV 8, one half of the culture medium was replaced with NB/2% B27.
as §1
Untreated and glutamate-treated control samples received media additions with and without glutamate respectively.
as §2

[3] = 2 μM extracellular concentration

Row | SMILES | neurons that appeared intact and viable [1] | neuronal morphology (cellular rounding, survival) after glutamate exposure [1] | neuronal viability following glutamate excitotoxicity [2] | further results
1 | CC[C@@H](C)[C@@H](NC(=O)[C@@H](CCC(=O)O)NC(=O)[C@@H](CO)NC(=O)[C@@H](CO)NC(=O)[C@@H](CO)NC(=O)[C@@H](CCCCN)NC(=O)[C@@H](CCCNC(=N)N)NC(=O)[C@@H](CCC(=O)O)NC(=O)[C@H](N)CCCNC(=N)N)C(=O)NCC(=O)NCC(=O)N[C@H](CO)C(=O)N[C@H](CCCNC(=N)N)C(=O)N[C@@H](C(=O)N[C@H](CO)C(=O)N[C@H](CCC(N)=O)C(=O)N[C@H](Cc1ccc(O)cc1)C(=O)N[C@H](C)C(=O)NCC(=O)O)[C@H](C)CC [PYC35D, Arg Glu Arg Lys Ser Ser Ser Glu Ile Gly Gly Ser Arg Ile Ser Gln Tyr Ala Gly] (H-[dR][dE][dR][dK][dS][dS][dS][dE][dI]GG[dS][dR][dI][dS][dQ][dY][dA]G-OH; N-terminus and C-terminus assumed) | 2-5% | displayed cellular rounding | – | –
2 | CC(C)C[C@@H](NC(=O)[C@H]1CCCN1C(=O)[C@@H](C)NC(=O)[C@@H](Cc1c[nH]cn1)NC(=O)[C@H](N)CCCNC(=N)N)C(=O)N[C@H](C)C(=O)N[C@H](CCCNC(=N)N)C(=O)NCC(=O)N[C@H](CO)C(=O)N[C@H](Cc1c[nH]c2ccccc12)C(=O)N[C@H](CCCNC(=N)N)C(=O)NCC(=O)N[C@H](CCC(N)=O)C(=O)N1CCC[C@@H]1C(=O)N[C@H](CCC(N)=O)C(=O)N[C@H](CCC(N)=O)C(=O)NCC(=O)N1CCC[C@@H]1C(=O)N[C@H](CCC(N)=O)C(=O)N[C@H](CCCNC(=N)N)C(=O)N[C@H](CCCNC(=N)N)C(=O)NCC(=O)N[C@H](CCC(N)=O)C(=O)N[C@H](CC(C)C)C(=O)NCC(=O)NCC(=O)N[C@H](CCCNC(=N)N)C(=O)N[C@H](CCCNC(=N)N)C(=O)N[C@H](CCCNC(=N)N)C(=O)N[C@H](CCC(N)=O)C(=O)N[C@H](CCCNC(=N)N)C(=O)N[C@H](CCCNC(=N)N)C(=O)N[C@H](CCCCN)C(=O)N[C@H](CCCCN)C(=O)N[C@H](CCCNC(=N)N)C(=O)NCC(=O)O [PYC38/39D-TAT] (H-[dR][dH][dA][dP][dL][dA][dR]G[dS][dW][dR]G[dQ][dP][dQ][dQ]G[dP][dQ][dR][dR]G[dQ][dL]GG[dR][dR][dR][dQ][dR][dR][dK][dK][dR]G-OH; N-terminus and C-terminus assumed) | – | – | 83% | neuroprotection compared with JNKI-1D-TAT [2]: greater neuroprotection than JNKI-1D-TAT; neuroprotection following glutamate excitotoxicity [2, 3]: initial significant neuroprotection
3 | CC[C@@H](C)[C@@H](NC(=O)CNC(=O)[C@@H](CCC(=O)O)NC(=O)[C@@H](CO)NC(=O)[C@@H](CCCNC(=N)N)NC(=O)[C@@H](CCC(=O)O)NC(=O)[C@H](NC(=O)[C@H](N)CCCCN)[C@H](C)CC)C(=O)N[C@H](CO)C(=O)N[C@H](CCC(N)=O)C(=O)N[C@H](CO)C(=O)N[C@H](C)C(=O)N[C@H](CCCNC(=N)N)C(=O)N[C@H](CO)C(=O)N[C@H](CCCNC(=N)N)C(=O)NCC(=O)N[C@H](Cc1ccc(O)cc1)C(=O)N[C@H](CO)C(=O)NCC(=O)N[C@H](CCCNC(=N)N)C(=O)N[C@H](CCCNC(=N)N)C(=O)N[C@H](CCCNC(=N)N)C(=O)N[C@H](CCC(N)=O)C(=O)N[C@H](CCCNC(=N)N)C(=O)N[C@H](CCCNC(=N)N)C(=O)N[C@H](CCCCN)C(=O)N[C@H](CCCCN)C(=O)N[C@H](CCCNC(=N)N)C(=O)NCC(=O)O [PYC35D Scram-TAT, reference compound] (H-[dK][dI][dE][dR][dS][dE]G[dI][dS][dQ][dS][dA][dR][dS][dR]G[dY][dS]G[dR][dR][dR][dQ][dR][dR][dK][dK][dR]G-OH; N-terminus and C-terminus assumed) | 2-5% | displayed cellular rounding | – | neuroprotection in the glutamate model [2]: failed to provide neuroprotection; neuroprotection in the glutamate model ([2]; listed as PYC35L-Scram-TAT): reduced neuroprotection
4 | CC[C@@H](C)[C@@H](NC(=O)[C@@H](CC(N)=O)NC(=O)[C@@H](CCC(N)=O)NC(=O)[C@@H](CCC(=O)O)NC(=O)[C@@H](Cc1c[nH]cn1)NC(=O)[C@@H](Cc1c[nH]cn1)NC(=O)[C@@H](CCCNC(=N)N)NC(=O)[C@@H](CC(C)C)NC(=O)[C@@H](CC(C)C)NC(=O)[C@H]1CCCN1C(=O)[C@H](N)CC(C)C)C(=O)N[C@H](CO)C(=O)N[C@@H](C(=O)NCC(=O)N[C@H](CCCNC(=N)N)C(=O)N[C@H](CCCNC(=N)N)C(=O)N[C@H](CCCNC(=N)N)C(=O)N[C@H](CCC(N)=O)C(=O)N[C@H](CCCNC(=N)N)C(=O)N[C@H](CCCNC(=N)N)C(=O)N[C@H](CCCCN)C(=O)N[C@H](CCCCN)C(=O)N[C@H](CCCNC(=N)N)C(=O)NCC(=O)O)C(C)C [PYC41D-TAT] | – | – | 40% | neuroprotection following glutamate excitotoxicity [2, 3]: initial significant neuroprotection
5 | CC[C@@H](C)[C@@H](NC(=O)CNC(=O)CNC(=O)[C@@H](CCCNC(=N)N)NC(=O)[C@@H](CCCNC(=N)N)NC(=O)[C@H](N)CCCCN)C(=O)N[C@H](CC(C)C)C(=O)N[C@H](CCCNC(=N)N)C(=O)N[C@H](Cc1ccc(O)cc1)C(=O)NCC(=O)N[C@H](CCC(N)=O)C(=O)N1CCC[C@@H]1C(=O)N[C@H](CCC(N)=O)C(=O)N[C@H](CO)C(=O)N[C@H](CCC(N)=O)C(=O)NCC(=O)N[C@H](CCCNC(=N)N)C(=O)N[C@H](CCCNC(=N)N)C(=O)N[C@H](CCCNC(=N)N)C(=O)N[C@H](CCC(N)=O)C(=O)N[C@H](CCCNC(=N)N)C(=O)N[C@H](CCCNC(=N)N)C(=O)N[C@H](CCCCN)C(=O)N[C@H](CCCCN)C(=O)N[C@H](CCCNC(=N)N)C(=O)NCC(=O)O [PYC36D Scram-TAT, reference compound] (H-[dK][dR][dR]GG[dI][dL][dR][dY]G[dQ][dP][dQ][dS][dQ]G[dR][dR][dR][dQ][dR][dR][dK][dK][dR]G-OH; N-terminus and C-terminus assumed) | 2-5% | displayed cellular rounding | – | neuroprotection in the glutamate model [2]: failed to provide neuroprotection; neuroprotection in the glutamate model ([2]; listed as PYC36L Scram-TAT): reduced neuroprotection
6 | CC[C@@H](C)[C@@H](NC(=O)[C@@H](CCCCN)NC(=O)[C@H]1CCCN1)C(=O)N[C@H](CO)C(=O)N[C@H](CCC(N)=O)C(=O)N[C@H](Cc1ccc(O)cc1)C(=O)NCC(=O)N[C@H](CCC(N)=O)C(=O)N[C@H](CCCNC(=N)N)C(=O)N[C@H](CCCNC(=N)N)C(=O)N[C@H](CCCNC(=N)N)C(=O)NCC(=O)N[C@H](CCC(N)=O)C(=O)N[C@H](CC(C)C)C(=O)NCC(=O)O [PYC36D, Pro Lys Ile Ser Gln Tyr Gly Gln Arg Arg Arg Gly Gln Leu Gly] (H-[dP][dK][dI][dS][dQ][dY]G[dQ][dR][dR][dR]G[dQ][dL]G-OH; N-terminus and C-terminus assumed) | 2-5% | displayed cellular rounding | – | –
7 | CC[C@@H](C)[C@@H](NC(=O)[C@H](N)Cc1ccc(O)cc1)C(=O)N[C@H](Cc1ccc(O)cc1)C(=O)N1CCC[C@@H]1C(=O)N[C@H](Cc1ccc(O)cc1)C(=O)N[C@H](C)C(=O)N[C@H](Cc1ccc(O)cc1)C(=O)N[C@H](CO)C(=O)N[C@H](CCC(N)=O)C(=O)N[C@H](CC(N)=O)C(=O)N[C@@H](C(=O)N[C@H](CC(C)C)C(=O)NCC(=O)N[C@H](CCCNC(=N)N)C(=O)N[C@H](CCCNC(=N)N)C(=O)N[C@H](CCCNC(=N)N)C(=O)N[C@H](CCC(N)=O)C(=O)N[C@H](CCCNC(=N)N)C(=O)N[C@H](CCCNC(=N)N)C(=O)N[C@H](CCCCN)C(=O)N[C@H](CCCCN)C(=O)N[C@H](CCCNC(=N)N)C(=O)NCC(=O)O)[C@H](C)CC [PYC19D-TAT] | – | – | 68% | neuroprotection compared with JNKI-1D-TAT [2]: greater neuroprotection than JNKI-1D-TAT; neuroprotection following glutamate excitotoxicity ([2]; 1 μM extracellular concentration): significant neuroprotection; neuroprotection of D-isoform compared with L-isoform ([2]; concentrations higher than 1 μM): clearly provides enhanced neuroprotection
